Assay results published in PMC5705984, “Membrane-Active Properties of an Amphitropic Peptide from the CyaA Toxin Translocation Region” (Toxins, 2017).
“Also recorded” adds a separate entry of the source.

Experiment: Peptide partition from solution to membrane followed by tryptophan intrinsic fluorescence titration
Type: physicochemical
Conditions: for ability to interact with / partition into membranes: tryptophan fluorescence and CD; for ΔG (free energy of membrane partition): ΔG=−RTln(KX)
Description: Small unilamellar vesicles (SUVs) were prepared at a lipid concentration of 10 mM from POPC and POPG at a molar ratio of 10:0 or 8:2 or from DOPC, DOPE, DOPG, Chol at molar ratio 10:0:0:0, 8:0:2:0, 7:3:0:0, 7:0:0:3, 6:3:0:1, and 4:3:2:1 in buffer A, as previously described. Briefly, SUVs were prepared by reverse-phase evaporation and passed through polycarbonate filters 0.8-, 0.4-, and 0.2-μm (Merck Millipore, Darmstadt, Germany). Vesicles were sonicated using a sonicator tip and their hydrodynamic diameters, dispersity, and charge were checked by dynamic light scattering (DLS) and electrophoretic mobility using a NanoZS instrument (Malvern Instruments, Orsay, France).
Fluorescence titrations were performed with a FP-8200 Jasco spectrofluorimeter, equipped with a Peltier-thermostated ETC-272T (25 °C). A bandwidth of 5 nm was used for both excitation and emission beams. Fluorescence experiments were carried out in a 109.004F-QS cuvette (Hellma, France) with constant stirring. Fluorescence emission was recorded between 300 and 400 nm at a scan rate of 200 nm/min, with an excitation wavelength of 280 nm. Fluorescence emission spectra were corrected for SUV light scattering. Maximum emission wavelength (λmax) and fluorescence intensity ratio at 330 nm over 370 nm (P454-derived peptides) or at 340 nm over 380 nm (CyaA-derived peptides) were used to report peptide-membrane interaction and to measure the partition coefficient KX.
The partition coefficient KX is defined as the ratio of protein concentrations in the lipid and in buffer phases. It is expressed as follows:
KX=PL/PW·[W]/[L] , providing PW/PL=[W]/KX[L] , where PW is the concentration of peptide in solution, PL the concentration of peptides partitioning into lipid membrane, [W] represents the concentration of water, and [L] the lipid concentration.
The fraction of peptide partitioned into the membrane phase, fPL, is equal to: fPL=PL/PT=PL/PL+PW=1/(PW/PL)+1=1/([W]/KX[L])+1
The partition coefficient is related to the apparent dissociation constant as follows: KX * KD = [W] with KD * PL = PW * [L]. The equation fPL is fitted to the experimental data using the KaleidaGraph software, providing KX. The free energy corresponding to the transfer of the peptide from the aqueous phase to the lipid phase is given by the equation ΔG=−RTln(KX) , where ΔG is the free energy in kcal/mol, R the gas constant (R = 1.98 × 10^−3 kcal/mol/K), and T the temperature in Kelvin.

[1] = SUVs DOPC/DOPE/DOPG/Chol 4:3:2:1, Trp fluorescence titration (exc. 280 nm, ratio 340/380 nm), 20 mM HEPES, 150 mM NaCl, pH 7.4, 25 °C
[2] = SUVs DOPC/DOPE/DOPG/Chol 4:3:2:1
[3] = SUVs DOPC/DOPE/DOPG/Chol 4:3:2:1, pH 7.4, 25 °C
[4] = SUVs DOPC/DOPG 8:2, Trp fluorescence titration (exc. 280 nm, ratio 330/370 nm), 20 mM HEPES, 150 mM NaCl, pH 7.4, 25 °C, S.D. within ±5%
[5] = SUVs DOPC/DOPG 8:2, pH 7.4, 25 °C, S.D. ±0.1 kcal/mol
[6] = SUVs DOPC, Trp fluorescence titration (exc. 280 nm, ratio 330/370 nm), 20 mM HEPES, 150 mM NaCl, pH 7.4, 25 °C, S.D. within ±5%
[7] = SUVs DOPC, pH 7.4, 25 °C, S.D. ±0.1 kcal/mol
[8] = SUVs POPC/POPG 8:2, Trp fluorescence titration (exc. 280 nm, ratio 330/370 nm), 20 mM HEPES, 150 mM NaCl, pH 7.4, 25 °C, S.D. within ±5%
[9] = SUVs POPC/POPG 8:2, pH 7.4, 25 °C, S.D. ±0.1 kcal/mol
[10] = SUVs POPC, Trp fluorescence titration (exc. 280 nm, ratio 330/370 nm), 20 mM HEPES, 150 mM NaCl, pH 7.4, 25 °C, S.D. within ±5%
[11] = SUVs POPC, pH 7.4, 25 °C, S.D. ±0.1 kcal/mol

For `CC[C@H](C)[C@H](NC(=O)[C@H](CCCCN)NC(=O)[C@H](Cc1c[nH]c2ccccc12)NC(=O)[C@H](CC(C)C)NC(=O)[C@H](CC(C)C)NC(=O)[C@H](CC(=O)O)NC(=O)[C@@H](NC(=O)[C@H](CCCNC(=N)N)NC(=O)[C@H](CCC(=O)O)NC(=O)[C@H](CCCNC(=N)N)NC(=O)[C@H](CC(=O)O)NC(=O)[C@H](CC(C)C)NC(C)=O)[C@@H](C)CC)C(=O)N[C@@H](C)C(=O)N[C@@H](CCCNC(=N)N)C(=O)N[C@@H](C)C(=O)NCC(=O)N[C@@H](C)C(=O)N[C@@H](CCCNC(=N)N)C(=O)N[C@@H](CO)C(=O)N[C@@H](C)C(=O)N[C@H](C(=O)NCC(N)=O)C(C)C` [Peptide P233], the “partition coefficient KX” value [1] was 60 000, the “ability to interact with / partition into membranes” value [2] was “able to interact with membranes” and the “ΔG (free energy of membrane partition)” value [3] was -6.5 kcal/mol.

In the case of `CC[C@H](C)[C@H](NC(=O)[C@H](C)NC(=O)[C@H](Cc1c[nH]cn1)NC(=O)[C@@H](NC(=O)[C@H](CC(C)C)NC(=O)[C@H](CCCNC(=N)N)NC(=O)[C@H](CCC(N)=O)NC(=O)[C@H](C)NC(=O)[C@H](C)NC(=O)[C@H](C)NC(=O)[C@@H](NC(=O)[C@H](C)NC(=O)[C@H](CCC(N)=O)NC(=O)[C@H](C)NC(=O)CNC(=O)[C@H](CCC(N)=O)NC(=O)[C@H](CC(C)C)NC(=O)[C@H](C)NC(=O)[C@H](CCCNC(=N)N)NC(=O)[C@H](CCC(N)=O)NC(=O)CNC(=O)[C@H](Cc1c[nH]c2ccccc12)NC(=O)[C@H](Cc1c[nH]cn1)NC(=O)[C@H](C)NC(=O)[C@H](CO)NC(=O)[C@H](C)NC(C)=O)C(C)C)C(C)C)C(=O)N[C@@H](C)C(=O)N[C@@H](CC(C)C)C(=O)N[C@@H](CCSC)C(=O)N[C@H](C(=O)N[C@@H](CCC(N)=O)C(N)=O)[C@@H](C)O` [Peptide P454], the “membrane partition on addition of both POPE and cholesterol to POPC” value (POPC with POPE and cholesterol, data not shown) is reported as “totally abolishes the partition”, the “partition coefficient KX” value (SUVs DOPC/Chol 7:3, Trp fluorescence titration, pH 7.4, 25 °C, S.D. within ±5%) is reported as 60 000 and the “ΔG (free energy of membrane partition)” value (SUVs DOPC/Chol 7:3, pH 7.4, 25 °C) is reported as -6.5 kcal/mol. For the same compound, the “partition coefficient KX” value (SUVs DOPC/DOPE 7:3, Trp fluorescence titration, pH 7.4, 25 °C, S.D. within ±5%) was 80 000, the “ΔG (free energy of membrane partition)” value (SUVs DOPC/DOPE 7:3, pH 7.4, 25 °C) was -6.7 kcal/mol and the “partition coefficient KX” value (SUVs DOPC/DOPE/Chol 6:3:1, Trp fluorescence titration, pH 7.4, 25 °C, S.D. within ±5%) was 40 000. The “ΔG (free energy of membrane partition)” value (SUVs DOPC/DOPE/Chol 6:3:1, pH 7.4, 25 °C) was -6.3 kcal/mol, the “partition coefficient KX” value [1] was 300 000 and the “ability to interact with / partition into membranes” value [2] was “able to interact with membranes”. The “ΔG (free energy of membrane partition)” value [3] was -7.4 kcal/mol, the “partition coefficient KX” value [4] was 1 200 000 and the “ΔG (free energy of membrane partition)” value [5] was -8.3 kcal/mol. The “partition coefficient KX” value [6] was 505 000, the “ΔG (free energy of membrane partition)” value [7] was -7.8 kcal/mol and the “partition coefficient KX” value [8] was 790 000. For the same compound, the “ΔG (free energy of membrane partition)” value [9] was -8 kcal/mol, the “partition coefficient KX” value [10] was 150 000 and the “ΔG (free energy of membrane partition)” value [11] was -7 kcal/mol. For the same compound, the “ΔΔG, net contribution of arginine residues to partition compared to the lysine residues of R12K” value (native P454 vs R12K, all membrane lipid compositions tested) was roughly 0.5 ± 0.2 kcal/mol.

With “Ac-APEVIARADNDVNSSLAHGW-NH2 [Peptide P89]” the “ability to interact with / partition into membranes” value [2] was “no detectable change of tryptophan fluorescence or CD signature; also recorded: do not”.

With “Ac-ASAHWGQAALQGAQAVAAAQALVHAIALMTQ-NH2 [P454 R12A]” the “partition coefficient KX” value [4] was 795 000, the “ΔG (free energy of membrane partition)” value [5] was -8 kcal/mol and the “partition coefficient KX” value [6] was 610 000. For the same compound, the “ΔG (free energy of membrane partition)” value [7] was -7.9 kcal/mol, the “partition coefficient KX” value [8] was 275 000 and the “ΔG (free energy of membrane partition)” value [9] was -7.4 kcal/mol. The “partition coefficient KX” value [10] was 195 000 and the “ΔG (free energy of membrane partition)” value [11] was -7.2 kcal/mol.

For “Ac-ASAHWGQEALQGAQAVAAAQELVHAIALMTQ-NH2 [P454 R12E]”, the “partition coefficient KX” value [4] was 70 000, the “ΔG (free energy of membrane partition)” value [5] was -6.6 kcal/mol and the “partition coefficient KX” value [6] was 85 000. The “ΔG (free energy of membrane partition)” value [7] was -6.7 kcal/mol, the “partition coefficient KX” value [8] was 30 000 and the “ΔG (free energy of membrane partition)” value [9] was -6.1 kcal/mol. For the same compound, the “partition coefficient KX” value [10] was 7 000 and the “ΔG (free energy of membrane partition)” value [11] was -5.2 kcal/mol.

With “Ac-ASAHWGQKALQGAQAVAAAQKLVHAIALMTQ-NH2 [P454 R12K]” the “partition coefficient KX” value [4] was 750 000, the “ΔG (free energy of membrane partition)” value [5] was -8 kcal/mol and the “partition coefficient KX” value [6] was 265 000. For the same compound, the “ΔG (free energy of membrane partition)” value [7] was -7.4 kcal/mol, the “partition coefficient KX” value [8] was 215 000 and the “ΔG (free energy of membrane partition)” value [9] was -7.3 kcal/mol. For the same compound, the “partition coefficient KX” value [10] was 60 000 and the “ΔG (free energy of membrane partition)” value [11] was -6.5 kcal/mol.

In the case of “Ac-ASAHWGQQALQGAQAVAAAQQLVHAIALMTQ-NH2 [P454 R12Q]”, the “partition coefficient KX” value [4] is reported as 310 000, the “ΔG (free energy of membrane partition)” value [5] is reported as -7.5 kcal/mol and the “partition coefficient KX” value [6] is reported as 195 000. The “ΔG (free energy of membrane partition)” value [7] was -7.2 kcal/mol, the “partition coefficient KX” value [8] was 70 000 and the “ΔG (free energy of membrane partition)” value [9] was -6.6 kcal/mol. For the same compound, the “partition coefficient KX” value [10] was 35 000 and the “ΔG (free energy of membrane partition)” value [11] was -6.2 kcal/mol.

With “Ac-ASAHWGQQALQGAQAVAAAQRLVHAIALMTQ-NH2 [P454 R1Q]” the “partition coefficient KX” value [4] was 670 000, the “ΔG (free energy of membrane partition)” value [5] was -7.9 kcal/mol and the “partition coefficient KX” value [6] was 340 000. For the same compound, the “ΔG (free energy of membrane partition)” value [7] was -7.5 kcal/mol, the “partition coefficient KX” value [8] was 190 000 and the “ΔG (free energy of membrane partition)” value [9] was -7.2 kcal/mol. The “partition coefficient KX” value [10] was 75 000 and the “ΔG (free energy of membrane partition)” value [11] was -6.6 kcal/mol.

With “Ac-ASAHWGQRALQGAQAVAAAQQLVHAIALMTQ-NH2 [P454 R2Q]” the “partition coefficient KX” value [4] was 655 000, the “ΔG (free energy of membrane partition)” value [5] was -7.9 kcal/mol and the “partition coefficient KX” value [6] was 260 000. The “ΔG (free energy of membrane partition)” value [7] was -7.4 kcal/mol, the “partition coefficient KX” value [8] was 150 000 and the “ΔG (free energy of membrane partition)” value [9] was -7 kcal/mol. For the same compound, the “partition coefficient KX” value [10] was 90 000 and the “ΔG (free energy of membrane partition)” value [11] was -6.7 kcal/mol.

With “Ac-AYFEKNLQARHEQLANSDGLRKMLADLQAGWNASS-NH2 [Peptide P737]” the “partition coefficient KX” value [1] was 20 000, the “ability to interact with / partition into membranes” value [2] was “able to interact with membranes” and the “ΔG (free energy of membrane partition)” value [3] was -5.8 kcal/mol.

For Ac-EASSAVAETVSGFFRGW-NH2 [Peptide P509], the “partition coefficient KX” value [1] was 80 000, the “ability to interact with / partition into membranes” value [2] was “able to interact with membranes” and the “ΔG (free energy of membrane partition)” value [3] was -6.7 kcal/mol.

With “Ac-IIEKLANDYARKIDELGW-NH2 [Peptide P717]” the “partition coefficient KX” value [1] was 60 000, the “ability to interact with / partition into membranes” value [2] was “able to interact with membranes” and the “ΔG (free energy of membrane partition)” value [3] was -6.5 kcal/mol.

In the case of Ac-IPAAVLDGIKAVAKEKNW-NH2 [Peptide P19], the “ability to interact with / partition into membranes” value [2] is reported as “no detectable change of tryptophan fluorescence or CD signature; also recorded: do not”.

With “Ac-LVQQSHYADQLDKLAQESSAYGW-NH2 [Peptide P626]” the “ability to interact with / partition into membranes” value [2] was “no detectable change of tryptophan fluorescence or CD signature; also recorded: do not”.

In the case of “Ac-QEAASLSAAVFGLGEASSAVAETVSGFFRGW-NH2 [Peptide P495]”, the “partition coefficient KX” value [1] is reported as 130 000, the “ability to interact with / partition into membranes” value [2] is reported as “able to interact with membranes” and the “ΔG (free energy of membrane partition)” value [3] is reported as -6.9 kcal/mol.

For “Ac-TTEISKSALELAAITGNW-NH2 [Peptide P777]”, the “ability to interact with / partition into membranes” value [2] was “no detectable change of tryptophan fluorescence or CD signature; also recorded: do not”.
